Experimental data: patent US10744128B2, “6-(5-membered heteroaryl)isoquinolin-3-yl-(5-membered heteroaryl) carboxamides and preparation and use thereof” (Samumed, LLC, priority 2017, dated 2020)
Read-outs that look alike come from different tables or passages of the source.

Columns and labels:
[1] = tested on: Wnt-responsive promoter (Sp5-Luc reporter) in SW480 colon carcinoma cells; test: Sp5-Luc reporter gene screening assay for Wnt activity in SW480 cells; type: cell-based, human; details: 36 to 48 hours, luminescence
In short: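 SW480 cells stably carrying a luciferase reporter under an Sp5 promoter with eight TCF/LEF sites, plated at 4,000 cells/well in DMEM with 1% FBS and incubated 36 to 48 hours at 37° C. Luminescence normalized to DMSO-only cells; EC50 fitted by four-parameter nonlinear regression.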

recombinant GSK3β kinase = recombinant GSK3β kinase (Homo sapiens (Human), UniProt P49841); test: GSK3β kinase assay (Ser/Thr 09 peptide Z-lyte, FRET); type: biochemical; details: GSK3β kinase, 46 μM ATP, one hour; method calls values IC50
Sequence of recombinant GSK3β kinase (P49841 whole entry): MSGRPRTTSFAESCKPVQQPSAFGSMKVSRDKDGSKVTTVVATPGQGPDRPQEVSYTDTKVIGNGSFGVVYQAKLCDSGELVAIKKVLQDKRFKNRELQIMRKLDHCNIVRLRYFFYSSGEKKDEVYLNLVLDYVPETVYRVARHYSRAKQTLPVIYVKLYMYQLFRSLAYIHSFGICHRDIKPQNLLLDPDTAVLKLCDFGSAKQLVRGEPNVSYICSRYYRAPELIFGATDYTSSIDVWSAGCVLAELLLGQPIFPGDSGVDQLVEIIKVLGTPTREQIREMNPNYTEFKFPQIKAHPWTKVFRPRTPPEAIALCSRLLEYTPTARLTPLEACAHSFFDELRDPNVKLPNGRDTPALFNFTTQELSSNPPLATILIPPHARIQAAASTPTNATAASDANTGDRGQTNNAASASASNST

[2] = tested on: SW480 colon carcinoma cells; test: Cell viability assay (CellTiter-Glo) in SW480 cells; type: cell-based, human; details: four days
[3] = tested on: primary human fibroblasts derived from IPF patients (LL29 cells), α-smooth muscle actin; test: Inhibition of fibrotic process: αSMA in TGF-β1 treated LL29 fibroblasts; type: cell-based; details: for EC50: LL29 cells, TGF-β1 20 ng/mL, 4 days, % cells positive for αSMA; for inhibition at 10 µM: read-out: percent inhibition at 10 μM
In short: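 LL29 fibroblasts from IPF patients, in F12 medium with 1% FBS, treated with TGF-β1 plus compound; TGF-β1 with DMSO as positive control, DMSO alone as negative control. After 4 days' incubation, SYTOX green nucleic acid stain added at 1 μM final, 30 min at room temperature.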

IL-6 = IL-6 inhibition in LPS-stimulated human peripheral blood mononuclear cells (HTRF); type: cell-based; details: for EC50: huPBMCs, LPS 50 ng/mL, 22 hours, IL-6 HTRF; for inhibition at 10 µM: read-out: percent inhibition at 10 μM
In short: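 Fresh human PBMCs at 1×10e6 cells/mL in 1% FBS-RPMI were pretreated with compound for 2 h, then stimulated with 50 ng/mL E. coli 0111:B4 LPS for a further 22 h at 37 °C. IL-6 was measured by HTRF (665/620 nm ratio). Values were normalized to DMSO and fitted 4-parameter for EC50.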

[4] = biological target: recombinant DYRK1A kinase (Homo sapiens (Human), UniProt Q13627); test: DYRK1A kinase assay (Ser/Thr 18 peptide Z-lyte, FRET); details: DYRK1A kinase, 30 μM ATP, one hour; method calls values IC50
[5] = tested on: Tau phosphorylation at Ser396 (pSer396); test: Tau phosphorylation (pSer396) assay in SH-SY5Y cells; type: cell-based, human
Protocol: Two days before treatment, cells were seeded onto 96 well plates at 5×10^4 cells/well.
The above synthesized compounds were screened using the cell assay procedure to assess decrease Tau phosphorylation at Ser396 (pSer396) described below.
Cells were lysed with RIPA buffer complemented with phosphatase and protease inhibitors then lysates were spun down at 12,000 g for 10 min to remove any cellular debris.

Molecule | EC50 ([1]; Homo sapiens) | EC50 (recombinant GSK3β kinase) | EC50 ([2]; Homo sapiens, 96 h) | EC50 ([3]; Homo sapiens, Fibroblast, 96 h) | inhibition at 10 µM ([3]; Homo sapiens, Fibroblast) | EC50 (IL-6; Homo sapiens, PBMC) | inhibition at 10 µM (IL-6; Homo sapiens, PBMC) | EC50 [4] | EC50 ([5]; Homo sapiens, SH-SY5Y) | EC50 ([5]; SH-SY5Y cells, overnight (16-18 h), pSer396 Tau ELISA, read-out: EC50) | EC50 [1] | EC50 [2] | EC50 [3] | EC50 (IL-6)
Cc1ncc(C(=O)Nc2cc3cc(-c4cncn4C)ccc3cn2)n1C [Compound 51, 1,2-Dimethyl-N-(6-(1-methyl-1H-imidazol-5-yl)isoquinolin-3-yl)-1H-imidazole-5-carboxamide] | 0.466 µM | 0.641 µM | 0.844 µM | > 10 µM | 6.5% | > 10 µM | 10.9% | 0.004 µM |  |  |  |  |  | 
Cn1cnc(C(=O)Nc2cc3cc(-c4cncn4C)ccc3cn2)n1 [Compound 52, 1-Methyl-N-(6-(1-methyl-1H-imidazol-5-yl)isoquinolin-3-yl)-1H-1,2,4-triazole-3-carboxamide] | 2.18 µM | 5.03 µM | 3.61 µM | > 10 µM | 33.8% | > 10 µM | 1.1% | 0.009 µM |  |  |  |  |  | 
Cc1nc(C(=O)Nc2cc3cc(-c4cncn4C)ccc3cn2)co1 [Compound 53, 2-Methyl-N-(6-(1-methyl-1H-imidazol-5-yl)isoquinolin-3-yl)oxazole-4-carboxamide] | 1.89 µM | 0.821 µM | 3.2 µM | 2.42 µM |  | > 10 µM | 47.5% | 0.014 µM |  |  |  |  |  | 
CC(C)c1nc(C(=O)Nc2cc3cc(-c4cncn4C)ccc3cn2)co1 [Compound 54, 2-Isopropyl-N-(6-(1-methyl-1H-imidazol-5-yl)isoquinolin-3-yl)oxazole-4-carboxamide] | 2.13 µM | 1.92 µM | 3.73 µM | 3.21 µM |  | 6.51 µM |  | 0.018 µM |  |  |  |  |  | 
Cc1coc(C(=O)Nc2cc3cc(-c4cncn4C)ccc3cn2)n1 [Compound 55, 4-Methyl-N-(6-(1-methyl-1H-imidazol-5-yl)isoquinolin-3-yl)oxazole-2-carboxamide] | 1.12 µM | 0.986 µM | 3.07 µM | 3.81 µM |  | 9.47 µM |  | 0.007 µM |  |  |  |  |  | 
Cc1csc(C(=O)Nc2cc3cc(-c4cncn4C)ccc3cn2)n1 [Compound 56, 4-Methyl-N-(6-(1-methyl-1H-imidazol-5-yl)isoquinolin-3-yl)thiazole-2-carboxamide] | 2.31 µM | 9.99 µM | 3.07 µM | 3.19 µM |  | 8.92 µM |  | 0.005 µM |  |  |  |  |  | 
Cc1nc(C(=O)Nc2cc3cc(-c4cncn4C)ccc3cn2)cs1 [Compound 57, 2-Methyl-N-(6-(1-methyl-1H-imidazol-5-yl)isoquinolin-3-yl)thiazole-4-carboxamide] | 2.55 µM | 1.61 µM | 1.81 µM | 2.83 µM |  | > 10 µM | 19.6% | 0.006 µM |  |  |  |  |  | 
Cc1nnc(C(=O)Nc2cc3cc(-c4cncn4C)ccc3cn2)o1 [Compound 58, 5-Methyl-N-(6-(1-methyl-1H-imidazol-5-yl)isoquinolin-3-yl)-1,3,4-oxadiazole-2-carboxamide] | 1.31 µM | 4.34 µM | 2.96 µM | 1.28 µM |  | > 10 µM | 9.5% | 0.009 µM |  |  |  |  |  | 
Cc1nnc(C(=O)Nc2cc3cc(-c4cncn4C)ccc3cn2)s1 [Compound 59, 5-Methyl-N-(6-(1-methyl-1H-imidazol-5-yl)isoquinolin-3-yl)-1,3,4-thiadiazole-2-carboxamide] | 1.89 µM | 1.42 µM | 3.32 µM | 1.42 µM |  | > 10 µM | 0% | 0.004 µM |  |  |  |  |  | 
Cc1ncc(-c2ccc3cnc(NC(=O)c4cnn(C)c4)cc3c2)n1C [Compound 60, N-(6-(1,2-Dimethyl-1H-imidazol-5-yl)isoquinolin-3-yl)-1-methyl-1H-pyrazole-4-carboxamide] | 0.121 µM | 4.01 µM | 0.405 µM | 0.77 µM |  | 1.58 µM |  | 0.004 µM |  |  |  |  |  | 
Cc1ncc(-c2ccc3cnc(NC(=O)c4cnn(C(C)C)c4)cc3c2)n1C [Compound 61, N-(6-(1,2-Dimethyl-1H-imidazol-5-yl)isoquinolin-3-yl)-1-isopropyl-1H-pyrazole-4-carboxamide] | 0.063 µM | 6.79 µM | 0.111 µM | 0.318 µM |  | 0.566 µM |  | 0.005 µM |  |  |  |  |  | 
Cc1ncc(-c2ccc3cnc(NC(=O)c4cnn(C5CCN(C)CC5)c4)cc3c2)o1 [Compound 63, N-(6-(2-Methyloxazol-5-yl)isoquinolin-3-yl)-1-(1-methylpiperidin-4-yl)-1H-pyrazole-4-carboxamide] | 0.034 µM | 0.611 µM | 0.058 µM | 0.113 µM |  | 0.298 µM |  | 0.002 µM |  |  |  |  |  | 
Cc1nnc(-c2ccc3cnc(NC(=O)c4cnn(C5CCN(C)CC5)c4)cc3c2)s1 [Compound 65, N-(6-(5-Methyl-1,3,4-thiadiazol-2-yl)isoquinolin-3-yl)-1-(1-methylpiperidin-4-yl)-1H-pyrazole-4-carboxamide] | 0.03 µM | 0.628 µM | 0.048 µM | 0.219 µM |  | 0.361 µM |  | 0.006 µM |  |  |  |  |  | 
Cc1nnc(-c2ccc3cnc(NC(=O)c4cnn(C5CCN(C(C)C)CC5)c4)cc3c2)s1 [Compound 66, 1-(1-Isopropylpiperidin-4-yl)-N-(6-(5-methyl-1,3,4-thiadiazol-2-yl)isoquinolin-3-yl)-1H-pyrazole-4-carboxamide] | 0.034 µM | 0.39 µM | 0.046 µM | 0.169 µM |  | 0.893 µM |  | 0.004 µM |  |  |  |  |  | 
Cc1nnc(-c2ccc3cnc(NC(=O)c4cn(C5CCN(C)CC5)nn4)cc3c2)s1 [Compound 67, N-(6-(5-Methyl-1,3,4-thiadiazol-2-yl)isoquinolin-3-yl)-1-(1-methylpiperidin-4-yl)-1H-1,2,3-triazole-4-carboxamide] | 0.463 µM | 2.34 µM | 0.899 µM | 4.36 µM |  | > 10 µM | 8.3% | 0.031 µM |  |  |  |  |  | 
Cc1nnc(-c2ccc3cnc(NC(=O)c4coc(C5CCNCC5)n4)cc3c2)s1 [Compound 68, N-(6-(5-Methyl-1,3,4-thiadiazol-2-yl)isoquinolin-3-yl)-2-(piperidin-4-yl) oxazole-4-carboxamide] | 0.122 µM | 0.666 µM | 0.414 µM | 2.58 µM |  | 2.64 µM |  | 0.074 µM |  |  |  |  |  | 
Cc1nnc(-c2ccc3cnc(NC(=O)c4coc(C5CCN(C)CC5)n4)cc3c2)s1 [Compound 69, N-(6-(5-Methyl-1,3,4-thiadiazol-2-yl)isoquinolin-3-yl)-2-(1-methylpiperidin-4-yl)oxazole-4-carboxamide] | 2.15 µM | 6.77 µM | 1.29 µM | > 10 µM | 43.9% | > 10 µM | 2.3% | 0.527 µM |  |  |  |  |  | 
CC(C)n1cc(C(=O)Nc2cc3cc(-c4cncn4C(C)C)ccc3cn2)cn1 [Compound 70, 1-Isopropyl-N-(6-(1-isopropyl-1H-imidazol-5-yl)isoquinolin-3-yl)-1H-pyrazole-4-carboxamide] | 0.115 µM | 7.08 µM | 0.132 µM | 0.249 µM |  | 1.6 µM |  | 0.009 µM |  |  |  |  |  | 
COc1ccc2c(c1)[nH]c1c(C)nccc12 [Harmine, reference compound] |  |  |  |  |  |  |  |  | > 10 µM |  |  |  |  | 
CCN1/C(=C/C(C)=O)Sc2ccc(O)cc21 [Indy, reference compound] |  |  |  |  |  |  |  |  |  | > 10 µM |  |  |  | 
N-(6-(1-(Methyl-d3)-1H-pyrazol-4-yl)isoquinolin-3-yl)-2-(1-methylpiperidin-4-yl)oxazole-4-carboxamide [Compound 17] |  | 2.93 µM |  |  |  |  |  | 0.016 µM |  |  | 0.111 µM | 0.128 µM | 0.173 µM | 6.2 µM
N-(6-(1-Methyl-1H-pyrazol-4-yl)isoquinolin-3-yl)-2-(4-methylpiperazin-1-yl)oxazole-5-carboxamide [Compound 15] |  | 9.52 µM |  |  |  |  |  | 0.008 µM |  |  | 0.103 µM | 0.146 µM | 0.279 µM | 0.754 µM
